Patent publication US20250134855A1, “CO[…] AND METHODS OF USING SAME” (LYKOS THERAPEUTICS, INC., priority 2022, published 2025)

Tests used:
[1] = test system: human plasma proteins; details: literature (Wan Aasim 2017); cited from earlier work
[2] = test system: participants with PTSD of moderate or greater severity; assay: MAPP2 Phase 3: safety, adverse events; assay type: in vivo, human
Protocol: MAPP2 was a Phase 3 randomized, placebo-controlled, 2-arm, double-blind, multi-site study conducted to investigate the efficacy and safety of MDMA-AT in participants with PTSD of moderate or greater severity. This study included 3 experimental sessions of therapy combined with either MDMA or placebo. During Experimental Session 1, participants received a split dose of 120 mg (80 mg+40 mg). Participants received an escalated split dose of 180 mg during Experimental Sessions 2 and 3 unless there were tolerability issues or the participant declined.
Overall, 102 (98.1%) participants reported at least 1 TEAE during the study period (Table 52riod (Table 52riod (Table 52). Of these, 2 (3.9%) participants from the placebo group were discontinued due to TEAE (abdominal pain and suicidal ideation). There were no serious TEAEs or deaths reported during the study. Adverse events of special interest included a subset of AEs involving cardiac function, suicidality, and MDMA abuse. There were 6 (11.3%) participants in the MDMA group and 3 (5.9%) participants in the placebo group with an TEAE of special interest. AESIs related to suicidality were reported in 2 MDMA participants and 2 placebo participants. AESIs related to cardiac function were reported in 4 MDMA participants and 1 placebo participant (all palpitations). […] A listing of all TEAEs from MDMA-AT group with ≥5% incidence and twice the prevalence of placebo group is provided below in Table 44 Table 44 Table 44.

[3] = biological target: OCT2 (Homo sapiens, UniProt O15244); assay: Transporter inhibition, OCT2; details: at supratherapeutic concentrations
OCT2, sequence (O15244 whole entry): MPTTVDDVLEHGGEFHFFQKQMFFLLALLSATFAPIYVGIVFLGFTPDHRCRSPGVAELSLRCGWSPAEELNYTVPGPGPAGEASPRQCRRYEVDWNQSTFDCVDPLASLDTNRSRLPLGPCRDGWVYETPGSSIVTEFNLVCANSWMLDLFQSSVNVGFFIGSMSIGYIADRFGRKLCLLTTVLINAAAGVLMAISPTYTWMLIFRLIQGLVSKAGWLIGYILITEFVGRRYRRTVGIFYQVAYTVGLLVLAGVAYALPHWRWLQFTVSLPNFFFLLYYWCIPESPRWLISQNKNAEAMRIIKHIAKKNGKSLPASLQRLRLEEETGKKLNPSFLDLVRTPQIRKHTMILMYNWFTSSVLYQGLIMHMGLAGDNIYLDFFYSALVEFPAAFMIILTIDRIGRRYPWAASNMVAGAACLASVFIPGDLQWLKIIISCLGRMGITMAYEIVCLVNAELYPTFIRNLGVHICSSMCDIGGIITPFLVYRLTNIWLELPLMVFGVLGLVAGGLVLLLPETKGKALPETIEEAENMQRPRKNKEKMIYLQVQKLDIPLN

[4] = test system: male rats; assay: In vivo genotoxicity (micronucleated polychromatic erythrocytes), male rats; set-up: species or system rat; details: oral, doses up to 100 mg/kg day over two days
Excerpt: No statistically significant differences in micronucleated polychromatic erythrocytes or bone marrow cytotoxicity were observed across all dose levels.

[5] = test system: dogs; assay: 28-day repeat-dose toxicity, weekly oral, dogs; details: any dose
[6] = biological target: BCRP (Homo sapiens, UniProt Q9UNQ0); assay: Transporter substrate assessment, BCRP; details: not told
BCRP, sequence (Q9UNQ0 whole entry): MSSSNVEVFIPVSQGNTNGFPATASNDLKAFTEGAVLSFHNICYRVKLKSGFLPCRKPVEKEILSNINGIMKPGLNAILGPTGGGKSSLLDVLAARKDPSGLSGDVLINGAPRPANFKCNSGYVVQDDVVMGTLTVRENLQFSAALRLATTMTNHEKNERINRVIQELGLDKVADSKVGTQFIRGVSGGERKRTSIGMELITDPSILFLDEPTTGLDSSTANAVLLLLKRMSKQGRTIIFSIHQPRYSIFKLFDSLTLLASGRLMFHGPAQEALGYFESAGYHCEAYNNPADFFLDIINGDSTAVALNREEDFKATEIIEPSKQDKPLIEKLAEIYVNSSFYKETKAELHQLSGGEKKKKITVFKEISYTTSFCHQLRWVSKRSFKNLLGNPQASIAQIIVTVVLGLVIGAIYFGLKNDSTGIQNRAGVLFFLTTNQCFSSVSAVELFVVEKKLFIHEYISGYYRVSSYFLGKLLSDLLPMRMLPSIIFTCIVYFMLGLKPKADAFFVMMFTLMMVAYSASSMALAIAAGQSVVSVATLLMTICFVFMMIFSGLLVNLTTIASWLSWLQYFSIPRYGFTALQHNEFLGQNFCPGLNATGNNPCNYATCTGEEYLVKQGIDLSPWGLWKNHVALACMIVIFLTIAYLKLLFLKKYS

SMILES: CNC(C)Cc1ccc2c(c1)OCO2 (stereo not shown) [MDMA, 3,4-methylenedioxymethamphetamine]
- bound to plasma proteins in humans [1]: 51%
- AESIs of MDMA abuse ([2]; MAPP2): no AESIs of MDMA abuse
- TEAE Abdominal pain upper, % ([2]; MAPP2): (9.4) %
- TEAE Bruxism, % ([2]; MAPP2): (13.2) %
- TEAE Chest discomfort, % ([2]; MAPP2): (17.0) %
- TEAE Chills, % ([2]; MAPP2): (15.1) %
- TEAE Decreased appetite, % ([2]; MAPP2): (35.8) %
- TEAE Dissociation, % ([2]; MAPP2): (5.7) %
- TEAE Dry mouth, % ([2]; MAPP2): (17.0) %
- TEAE Feeling abnormal, % ([2]; MAPP2): (9.4) %
- TEAE Feeling cold, % ([2]; MAPP2): (20.8) %
- TEAE Feeling hot, % ([2]; MAPP2): (26.4) %
- TEAE Feeling jittery, % ([2]; MAPP2): (15.1) %
- TEAE Feeling of body temperature change, % ([2]; MAPP2): (9.4) %
- TEAE Flushing, % ([2]; MAPP2): (5.7) %
- TEAE Gait disturbance, % ([2]; MAPP2): (5.7) %
- TEAE Heart rate increased, % ([2]; MAPP2): (5.7) %
- TEAE Hyperhidrosis, % ([2]; MAPP2): (34.0) %
- TEAE Hypoaesthesia, % ([2]; MAPP2): (9.4) %
- TEAE Muscle spasms, % ([2]; MAPP2): (7.5) %
- TEAE Muscle tightness, % ([2]; MAPP2): (58.8) %
- TEAE Mydriasis, % ([2]; MAPP2): (11.3) %
- TEAE Nausea, % ([2]; MAPP2): (45.3) %
- TEAE Nystagmus, % ([2]; MAPP2): (13.2) %
- TEAE Palpitations, % ([2]; MAPP2): (9.4) %
- TEAE Panic attack, % ([2]; MAPP2): (5.7) %
- TEAE Paraesthesia, % ([2]; MAPP2): (18.9) %
- TEAE Restlessness, % ([2]; MAPP2): (15.1) %
- TEAE Thirst, % ([2]; MAPP2): (7.5) %
- TEAE Tremor, % ([2]; MAPP2): (11.3) %
- TEAE Vision blurred, % ([2]; MAPP2): (15.1) %
- TEAE Visual impairment, % ([2]; MAPP2): (5.7) %
- participants with an TEAE of special interest ([2]; MAPP2): 11.3%
- At least one TEAE of Special Interest, % ([2]; MAPP2, Safety Set): (11.3) %
- At least one Treatment-emergent SAE Leading to Death, % ([2]; MAPP2, Safety Set): (0.0) %
- At least one Treatment-emergent SAE, % ([2]; MAPP2, Safety Set): (0.0) %
- Discontinued study treatment due to any TEAE(s), % ([2]; MAPP2, Safety Set): (0.0) %
- Participants with at least 1 TEAE during Experimental Sessions and 2 Days Following, % ([2]; MAPP2, Safety Set): (100.0) %
- Subjects with at least 1 Severe TEAE, % ([2]; MAPP2, Safety Set): (9.4) %
- Subjects with at least 1 TEAE, % ([2]; MAPP2, Safety Set): (100.0) %
- heart rate and blood pressure during experimental sessions ([2]; MAPP2, dose-dependent, no clinical intervention required): transient increases
- participants with at least 1 temporally related TEAE ([2]; MAPP2, during an experiment session or up to 2 days following): All participants
- inhibition of OCT2 [3]: inhibits
- genotoxicity in vivo [4]: no signs of genotoxicity
- neurohistopathology of the brain [5]: No morphologic changes
- substrate of BCRP [6]: not a substrate
